In patent publication US20210198277A1, “AMINE-SUBSTITUTED ARYL OR HETEROARYL COMPOUNDS” (Epizyme, Inc., priority 2016, published 2021):
Structures can show the parent of a compound that is named as a salt.

Experiments:
human EHMT2 913-1193 = target: T1, human EHMT2 913-1193 (Homo sapiens, UniProt Q96KQ7); assay: EHMT2 enzyme assay on histone peptide substrate (EHMT2 PEP); assay type: biochemical; conditions: Table II; read-out: EHMT2 PEP (IC50 μM)
T1 construct: recombinant purified human EHMT2 913-1193, Viva; purchased Viva
T1 sequence (Q96KQ7 913-1193): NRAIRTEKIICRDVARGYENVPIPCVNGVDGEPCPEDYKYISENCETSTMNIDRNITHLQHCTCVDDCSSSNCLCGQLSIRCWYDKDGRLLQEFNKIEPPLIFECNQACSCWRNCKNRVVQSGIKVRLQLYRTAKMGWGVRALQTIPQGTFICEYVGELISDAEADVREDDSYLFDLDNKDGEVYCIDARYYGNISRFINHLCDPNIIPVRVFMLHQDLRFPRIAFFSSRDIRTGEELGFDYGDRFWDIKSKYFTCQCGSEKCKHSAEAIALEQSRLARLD
Summary of the method: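 10-pt 3-fold series, 50 μM top final, 2% DMSO; 30 min preinc w/ 0.031 nM enzyme; pH 7.5 Bicine/TCEP buffer; ^3H-SAM + biotin-histone peptide, 60 min RT; SAM quench; streptavidin Flashplate capture, TopCount.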

EHMT1 = target: T2, EHMT1 (Homo sapiens, UniProt Q9H9B1); assay: EHMT1 enzyme assay on peptide substrate (EHMT1 PEP); assay type: biochemical; conditions: Table II; read-out: EHMT1 PEP (IC50 μM)
T2 sequence (Q9H9B1 1-1298): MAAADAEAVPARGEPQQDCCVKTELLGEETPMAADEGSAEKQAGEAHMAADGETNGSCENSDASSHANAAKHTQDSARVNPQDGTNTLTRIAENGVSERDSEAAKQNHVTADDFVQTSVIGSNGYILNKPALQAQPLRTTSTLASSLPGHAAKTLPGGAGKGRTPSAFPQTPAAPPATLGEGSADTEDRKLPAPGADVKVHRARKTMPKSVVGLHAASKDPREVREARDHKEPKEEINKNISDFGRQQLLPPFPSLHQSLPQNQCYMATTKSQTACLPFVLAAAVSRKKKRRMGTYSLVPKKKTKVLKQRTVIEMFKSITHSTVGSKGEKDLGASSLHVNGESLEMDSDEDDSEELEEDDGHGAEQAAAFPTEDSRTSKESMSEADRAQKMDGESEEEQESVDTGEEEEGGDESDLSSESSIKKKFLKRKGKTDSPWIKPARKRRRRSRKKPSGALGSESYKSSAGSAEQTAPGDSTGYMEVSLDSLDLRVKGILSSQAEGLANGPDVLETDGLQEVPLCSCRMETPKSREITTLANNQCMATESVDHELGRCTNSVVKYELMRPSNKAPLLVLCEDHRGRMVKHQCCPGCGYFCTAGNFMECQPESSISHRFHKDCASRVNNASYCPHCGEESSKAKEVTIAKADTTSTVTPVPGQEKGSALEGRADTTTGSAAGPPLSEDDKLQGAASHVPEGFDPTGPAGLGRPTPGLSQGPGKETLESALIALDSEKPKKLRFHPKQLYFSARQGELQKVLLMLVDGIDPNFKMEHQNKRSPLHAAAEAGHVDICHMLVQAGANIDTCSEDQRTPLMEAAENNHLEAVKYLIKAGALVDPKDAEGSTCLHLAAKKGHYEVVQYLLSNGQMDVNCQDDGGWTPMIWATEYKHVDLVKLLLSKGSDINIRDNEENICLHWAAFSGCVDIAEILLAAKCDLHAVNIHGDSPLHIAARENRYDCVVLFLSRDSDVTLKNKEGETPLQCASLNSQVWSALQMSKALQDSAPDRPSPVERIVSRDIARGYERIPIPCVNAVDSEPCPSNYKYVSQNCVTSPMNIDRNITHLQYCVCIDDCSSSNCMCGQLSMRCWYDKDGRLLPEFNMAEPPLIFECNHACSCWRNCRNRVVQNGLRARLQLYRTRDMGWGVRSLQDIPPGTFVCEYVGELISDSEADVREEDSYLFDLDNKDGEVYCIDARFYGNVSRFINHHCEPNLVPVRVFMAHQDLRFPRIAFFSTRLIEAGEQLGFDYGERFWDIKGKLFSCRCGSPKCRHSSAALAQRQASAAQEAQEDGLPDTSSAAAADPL

Row | Compound | IC50 (human EHMT2 913-1193) | IC50 (EHMT1)
1 | CNC(=O)c1cnc(Nc2ccc(OC)c(OCCCN3CCCC3)c2)nc1 [Compound 9, 2-((4-methoxy-3-(3-(pyrrolidin-1-yl)propoxy)phenyl)amino)-N-methylpyrimidine-5-carboxamide] | 1 to 10 µM | > 10 µM
2 | COc1cnc(Nc2ccnc(CNC3CCOCC3)c2)cc1OCCCN1CCCC1 [Compound 12, 5-methoxy-4-(3-(pyrrolidin-1-yl)propoxy)-N-(2-(((tetrahydro-2H-pyran-4-yl)amino)methyl)pyridin-4-yl)pyridin-2-amine] | 1 to 10 µM | 1 to 10 µM
3 | COc1ccc(Nc2ccnc(N(C)CC3CCN(C(C)=O)CC3)c2)cc1OCCCN1CCCC1 [Compound 13, 1-(4-(((4-((4-methoxy-3-(3-(pyrrolidin-1-yl)propoxy)phenyl)amino)pyridin-2-yl)(methyl)amino)methyl)piperidin-1-yl)ethan-1-one] | > 10 µM | > 10 µM
4 | COc1ccc(Nc2cc(CNC3CCOCC3)n(C)n2)cc1OCCCN1CCCC1 [Compound 127] | > 10 µM | > 10 µM
5 | COc1ccc(Nc2nccc(N3CCc4[nH]ncc4C3)n2)cc1OCCCN1CCCC1 [Compound 128] | > 10 µM | > 10 µM
6 | COc1ccc(Nc2nccc(-c3c(C)n[nH]c3C)n2)cc1OCCCN1CCCC1 [Compound 129] | > 10 µM | > 10 µM
7 | COc1ccc(Nc2nccc(-c3c(C)noc3C)n2)cc1OCCCN1CCCC1 [Compound 130] | > 10 µM | > 10 µM
8 | COc1ccc(Nc2nccc(-c3c[nH]nc3C)n2)cc1OCCCN1CCCC1 [Compound 131] | > 10 µM | > 10 µM
9 | COc1ccc(Nc2nccc(N3CCN(C)C(=O)C3)n2)cc1OCCCN1CCCC1 [Compound 132] | > 10 µM | > 10 µM
10 | COc1ccc(Nc2nccc(N3CCc4nc[nH]c(=O)c4C3)n2)cc1OCCCN1CCCC1 [Compound 134] | > 10 µM | > 10 µM
11 | COc1ccc(Nc2nccc(N(C)Cc3cccnc3)n2)cc1OCCCN1CCCC1 [Compound 135] | 1 to 10 µM | 1 to 10 µM
12 | COc1ccc(Nc2nccc(N(C)Cc3ccccn3)n2)cc1OCCCN1CCCC1 [Compound 136] | 1 to 10 µM | 1 to 10 µM
13 | COc1ccc(Nc2nccc(N3CCCN(C(C)=O)CC3)n2)cc1OCCCN1CCCC1 [Compound 138] | 1 to 10 µM | > 10 µM
14 | COc1ccc(Nc2nccc(N3CCN(C(C)=O)CC3)n2)cc1OCCCN1CCCC1 [Compound 139] | > 10 µM | > 10 µM
15 | COc1ccc(Nc2nccc(N(C)CCCO)n2)cc1OCCCN1CCCC1 [Compound 140] | 1 to 10 µM | 1 to 10 µM
16 | COc1ccc(Nc2nccc(N3CCC(C)(O)CC3)n2)cc1OCCCN1CCCC1 [Compound 141] | > 10 µM | > 10 µM
17 | COCCCN(C)c1ccnc(Nc2ccc(OC)c(OCCCN3CCCC3)c2)n1 [Compound 143] | 1 to 10 µM | 1 to 10 µM
18 | COc1ccc(Nc2nccc(N(C)CCO)n2)cc1OCCCN1CCCC1 [Compound 150] | 0.1 to 1 µM | 1 to 10 µM
19 | COc1ccc(Nc2nccc(N3CCCOCC3)n2)cc1OCCCN1CCCC1 [Compound 151] | > 10 µM | > 10 µM
20 | COc1ccc(Nc2nccc(N3CCNc4ccccc4C3)n2)cc1OCCCN1CCCC1 [Compound 154] | 1 to 10 µM | > 10 µM
21 | COc1ccc(Nc2nccc(N3CCc4cn[nH]c4C3)n2)cc1OCCCN1CCCC1 [Compound 155] | 1 to 10 µM | > 10 µM
22 | COc1ccc(Nc2nccc(N3CCc4ncncc4C3)n2)cc1OCCCN1CCCC1 [Compound 156] | 1 to 10 µM | 1 to 10 µM

The remaining lines, values ahead:

Row | IC50 (human EHMT2 913-1193) | IC50 (EHMT1) | Compound
23 | < 0.1 µM | 0.1 to 1 µM | COc1ccc(Nc2nccc(NC(C)(C)C)n2)cc1OCCCN1CCCC1 [Compound 6, N^4-(tert-butyl)-N^2-(4-methoxy-3-(3-(pyrrolidin-1-yl)propoxy)phenyl)pyrimidine-2,4-diamine]
24 | < 0.1 µM | < 0.1 µM | COc1ccc(Nc2ccnc(NCC3CCNCC3)n2)cc1OCCCN1CCCC1 [Compound 7, 4-N-[4-methoxy-3-[3-(pyrrolidin-1-yl)propoxy]phenyl]-2-N-(piperidin-4-ylmethyl)pyrimidine-2,4-diamine hydrochloride]
25 | 0.1 to 1 µM | 0.1 to 1 µM | CC(=O)N1CCC(CNc2ccnc(Nc3ccc(Cl)c(OCCCN4CCCC4)c3)n2)CC1 [Compound 8, 1-(4-(((2-((4-chloro-3-(3-(pyrrolidin-1-yl)propoxy)phenyl)amino)pyrimidin-4-yl)amino)methyl)piperidin-1-yl)ethan-1-one]
26 | < 0.1 µM | 0.1 to 1 µM | COc1ccc(Nc2cc(NCC3CCNCC3)ccn2)cc1OCCCN1CCCC1 [Compound 10, N^2-(4-methoxy-3-(3-(pyrrolidin-1-yl)propoxy)phenyl)-N^4-(piperidin-4-ylmethyl)pyridine-2,4-diamine]
27 | > 10 µM | > 10 µM | COc1ccc(Nc2nccc(OCC3CCN(C(C)=O)CC3)n2)cc1OCCCN1CCCC1 [Compound 14, 1-(4-(((2-((4-methoxy-3-(3-(pyrrolidin-1-yl)propoxy)phenyl)amino)pyrimidin-4-yl)oxy)methyl)piperidin-1-yl)ethan-1-one]
28 | < 0.1 µM | < 0.1 µM | COc1ccc(Nc2nccc(NCC3CCNCC3)n2)cc1OCC(O)CN1CCCC1 (stereo not shown) [Compound 15, 1-(2-methoxy-5-((4-((piperidin-4-ylmethyl)amino)pyrimidin-2-yl)amino)phenoxy)-3-(pyrrolidin-1-yl)propan-2-ol]
29 | 0.1 to 1 µM | 0.1 to 1 µM | COc1ccc(Nc2nc(NCC3CCNCC3)cc(N3CCCC3)n2)cc1OCCCN1CCCC1 [Compound 103]
30 | > 10 µM | > 10 µM | COc1ccc(Nc2cc(CNC3CCNCC3)n(C)n2)cc1OCCCN1CCCC1 [Compound 126]
31 | 1 to 10 µM | > 10 µM | COc1ccc(Nc2nccc(N3CCCNC(=O)C3)n2)cc1OCCCN1CCCC1 [Compound 133]
32 | 1 to 10 µM | 1 to 10 µM | COc1ccc(Nc2nccc(NC3COC3)n2)cc1OCCCN1CCCC1 [Compound 137]
33 | 1 to 10 µM | 1 to 10 µM | COc1ccc(Nc2nccc(N(C)C3CCOCC3)n2)cc1OCCCN1CCCC1 [Compound 142]
34 | > 10 µM | > 10 µM | COc1ccc(Nc2nccc(CNC(C)=O)n2)cc1OCCCN1CCCC1 [Compound 144]
35 | 1 to 10 µM | 1 to 10 µM | CC(=O)N1CCC(CNc2ccnc(Nc3ccc(C)c(OCCCN4CCCC4)c3)n2)CC1 [Compound 145]
36 | > 10 µM | > 10 µM | COc1ccc(Nc2nccc(N(C)CC3CCOCC3)n2)cc1OCCCN1CCCC1 [Compound 146]
37 | 1 to 10 µM | 1 to 10 µM | COc1ccc(Nc2nccc(N3CCC(C(C)(C)O)CC3)n2)cc1OCCCN1CCCC1 [Compound 147]
38 | 1 to 10 µM | > 10 µM | COc1ccc(Nc2nccc(N3CCC(O)CC3)n2)cc1OCCCN1CCCC1 [Compound 148]
39 | > 10 µM | > 10 µM | COc1ccc(Nc2nccc(N3CCC(OC)CC3)n2)cc1OCCCN1CCCC1 [Compound 149]
40 | 1 to 10 µM | 1 to 10 µM | COc1ccc(Nc2nccc(NC3CCS(=O)(=O)CC3)n2)cc1OCCCN1CCCC1 [Compound 152]
41 | 1 to 10 µM | 1 to 10 µM | COc1ccc(Nc2nccc(N3CCC(C(N)=O)CC3)n2)cc1OCCCN1CCCC1 [Compound 153]
